Substitutions are numbered along the chain they refer to. Read-outs that look alike come from different tables or passages of the source.
Columns and labels:
[1] = tested on: GlyR Ser294 to cysteine mutant; conditions: S294C vs wild type; ref Lynch et al., 2001; cited from earlier work
[2] = target: T1, Full-length zebrafish α1 GlyR (Danio rerio, UniProt O93430); assay: Macroscopic currents in outside-out patches, fast agonist application
T1 sequence (O93430 25-444): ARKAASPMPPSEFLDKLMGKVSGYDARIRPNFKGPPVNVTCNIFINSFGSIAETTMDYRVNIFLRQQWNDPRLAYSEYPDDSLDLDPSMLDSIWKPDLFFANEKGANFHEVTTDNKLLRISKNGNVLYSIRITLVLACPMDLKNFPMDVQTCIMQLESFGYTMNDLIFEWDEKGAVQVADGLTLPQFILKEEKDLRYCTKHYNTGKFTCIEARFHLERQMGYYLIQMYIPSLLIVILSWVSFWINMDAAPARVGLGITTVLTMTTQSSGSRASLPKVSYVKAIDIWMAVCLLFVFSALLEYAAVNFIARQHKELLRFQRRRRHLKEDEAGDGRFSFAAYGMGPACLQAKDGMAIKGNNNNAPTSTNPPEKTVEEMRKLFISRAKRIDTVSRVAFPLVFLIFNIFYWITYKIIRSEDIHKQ

[3] = target: T1, Full-length zebrafish α1 GlyR; assay: Whole cell dose-response, FL GlyR; format: cell-based
[4] = target: T2, F175Y/Y177F variant (YGF) of zebrafish α1 GlyR (Danio rerio, UniProt O93430, F183Y/Y185F); assay: Whole cell dose-response, YGF mutant; format: cell-based; conditions: HEK293A, ± SEM, n≥6 cells
T2 sequence (O93430 25-444 F183Y/Y185F): T1 sequence (O93430 25-444) with F159Y, Y161F

[5] = target: T2, F175Y/Y177F variant (YGF) of zebrafish α1 GlyR; assay: Cell-attached single-channel recording, cluster open probability, YGF mutant; format: cell-based; conditions: HEK293A cells, single-channel clusters, 100 mM GABA
[6] = target: T3, FL receptor (full-length zebrafish α1 glycine receptor) (Danio rerio, UniProt O93430); assay: Ligand binding with 3H-strychnine by SPA, FL receptor in SMA
T3 sequence (O93430 25-444): T1 sequence (O93430 25-444)

[7] = target: T4, YGF mutant of zebrafish α1 glycine receptor (Danio rerio, UniProt O93430, F183Y/Y185F); assay: Ligand binding with 3H-strychnine by SPA, YGF mutant in SMA
T4 sequence (O93430 25-444 F183Y/Y185F): T1 sequence (O93430 25-444) with F159Y, Y161F

[8] = target: T5, YYY mutant (F115Y/F175Y/F223Y) of GlyR (Danio rerio, UniProt O93430, F123Y/F183Y/F231Y); assay: Single-channel open probability, YYY mutant; format: cell-based, zebrafish; conditions: 100 mM GABA; similar Po in the YYY mutant as in the FL receptor
T5 sequence (O93430 25-444 F123Y/F183Y/F231Y): T1 sequence (O93430 25-444) with F99Y, F159Y, F207Y

Po [5]	EC50 [3]	Ki [6]	Ki [7]	agonist efficacy (Po) in YYY mutant compared with FL receptor [8]	SMILES	increase of glycine EC50 by mutation of Ser294 to cysteine [1]	current left at the end of the 1-s pulse, range over patches ([2]; 10 mM glycine, 8 patches)	current left at the end of the 1-s pulse, patch shown ([2]; 10 mM glycine, single outside-out patch of Figure S1A)	current left, % of peak, after 1 s application (desensitization), average ([2]; saturating (10 mM) glycine, outside-out patches, n=8 patches)	EC50 ([3]; FL GlyR, whole cell, HEK293A, -40 mV, ± SEM, n≥6 cells)	EC50 [4]
					NCC(=O)O [glycine]	~ 5 fold	17–89%	17%	57 ± 8%	190 ± 20 µM	33 ± 3 µM
95 ± 5%	1050 ± 80 µM				NCCS(=O)(=O)O [taurine]						
92 ± 2%	28400 ± 900 µM	1410 ± 940 µM	180 ± 70 µM	remained a weak partial agonist	NCCCC(=O)O [GABA, γ-amino butyric acid]						

Reference: PMC8115384 (Cell, 2021)
